Patent US9550782B2, “Compounds and methods for treating diabetes” (Medivation Technologies, Inc., priority 2011, dated 2017)

Assays:
[1] = biological target: T1, human recombinant adrenergic α2A receptor (Homo sapiens, UniProt P08913); assay: Radioligand binding, adrenergic α2A ([3H]MK-912); conditions: [3H]MK-912; for Percentage inhibition of ligand binding, Adrenergic α2A (0.1 μM): repeat datapoints each shown
T1 construct: expressed in transfected cells; host or cells: insect Sf9 cells
T1 sequence (P08913 1-465): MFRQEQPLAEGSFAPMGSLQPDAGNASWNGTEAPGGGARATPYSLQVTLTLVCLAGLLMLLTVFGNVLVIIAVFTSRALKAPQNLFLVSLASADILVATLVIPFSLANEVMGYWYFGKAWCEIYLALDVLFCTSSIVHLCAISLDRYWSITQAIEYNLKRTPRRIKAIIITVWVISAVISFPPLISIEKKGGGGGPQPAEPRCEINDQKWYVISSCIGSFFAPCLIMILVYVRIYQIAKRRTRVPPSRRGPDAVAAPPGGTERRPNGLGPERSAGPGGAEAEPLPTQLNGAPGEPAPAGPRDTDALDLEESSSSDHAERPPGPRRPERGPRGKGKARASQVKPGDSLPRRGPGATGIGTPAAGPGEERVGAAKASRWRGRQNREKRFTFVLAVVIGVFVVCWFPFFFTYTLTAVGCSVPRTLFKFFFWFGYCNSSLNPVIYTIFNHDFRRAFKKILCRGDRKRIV
In short: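 Displacement of 1 nM [3H]MK-912 from receptor produced in insect Sf9 cells was measured after 60 min at 25 °C. Readout: percent inhibition of specific binding.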

[2] = biological target: T2, human recombinant adrenergic α1D receptor (Homo sapiens, UniProt P25100); assay: Radioligand binding, adrenergic α1D ([3H]Prazosin); conditions: compound at 0.1 μM, 0.1 µM
T2 construct: expressed in transfected cells; host or cells: HEK-293
T2 sequence (P25100 1-572): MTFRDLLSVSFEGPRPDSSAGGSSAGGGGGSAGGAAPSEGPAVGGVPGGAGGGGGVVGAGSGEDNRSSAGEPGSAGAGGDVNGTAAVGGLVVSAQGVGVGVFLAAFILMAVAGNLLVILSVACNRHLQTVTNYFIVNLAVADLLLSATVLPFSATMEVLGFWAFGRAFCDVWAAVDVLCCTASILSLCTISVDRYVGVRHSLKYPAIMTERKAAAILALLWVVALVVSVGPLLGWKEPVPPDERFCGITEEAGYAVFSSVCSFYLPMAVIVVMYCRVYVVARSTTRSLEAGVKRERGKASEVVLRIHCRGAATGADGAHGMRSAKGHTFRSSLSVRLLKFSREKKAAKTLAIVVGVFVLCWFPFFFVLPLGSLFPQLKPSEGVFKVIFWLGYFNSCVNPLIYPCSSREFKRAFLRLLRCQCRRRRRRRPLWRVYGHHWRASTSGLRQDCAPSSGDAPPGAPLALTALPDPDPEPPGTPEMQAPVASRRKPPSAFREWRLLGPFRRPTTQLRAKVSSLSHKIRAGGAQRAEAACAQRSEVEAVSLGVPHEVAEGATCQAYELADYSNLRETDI
Description: Compounds were incubated with 0.6 nM [^3H]Prazosin for 60 min at 25° C. Non-specific binding was estimated in the presence of 10 μM phentolamine. Receptor proteins were filtered and washed, the filters were then counted to determine [^3H]Prazosin specifically bound. […] Biochemical assay results are presented as the percent inhibition of specific binding in Table B1.

[3] = biological target: T3, rat adrenergic α1B receptor (Rattus norvegicus, UniProt P15823); assay: Radioligand binding, adrenergic α1B ([3H]Prazosin); design: species or system Wistar Rat; conditions: for Percentage inhibition of ligand binding, Adrenergic α1B (0.1 μM): repeat datapoints each shown
T3 construct: rat adrenergic α1B receptor obtained from Wistar Rat liver; from tissue; host or cells: Wistar rat liver
T3 sequence (P15823 1-515): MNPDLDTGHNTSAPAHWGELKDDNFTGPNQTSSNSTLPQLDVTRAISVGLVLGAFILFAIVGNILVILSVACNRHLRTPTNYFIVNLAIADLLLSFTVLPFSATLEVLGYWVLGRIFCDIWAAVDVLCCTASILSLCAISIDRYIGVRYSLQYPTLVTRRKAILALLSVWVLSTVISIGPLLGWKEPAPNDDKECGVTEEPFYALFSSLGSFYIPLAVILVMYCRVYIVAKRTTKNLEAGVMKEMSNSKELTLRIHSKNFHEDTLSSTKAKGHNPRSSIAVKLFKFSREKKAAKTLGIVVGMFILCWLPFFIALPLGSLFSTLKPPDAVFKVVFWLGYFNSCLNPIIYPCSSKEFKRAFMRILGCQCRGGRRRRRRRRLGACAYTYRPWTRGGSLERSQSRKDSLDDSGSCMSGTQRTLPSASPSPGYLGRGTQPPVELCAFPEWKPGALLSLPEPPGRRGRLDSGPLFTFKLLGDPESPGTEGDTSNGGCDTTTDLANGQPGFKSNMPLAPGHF
In short: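 Specific binding, taken as total minus that remaining with 10 μM phentolamine, is measured after filtration and counting. Rat liver receptor preparation and 0.25 nM [3H]prazosin are incubated with compound in 50 mM Tris-HCl (pH 7.4, 0.5 mM EDTA) at 25° C for 60 min. Activity is reported as percent inhibition.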

[4] = biological target: T4, human recombinant adrenergic α2B receptor (Homo sapiens, UniProt P18089); assay: Radioligand binding, adrenergic α2B ([3H]Rauwolscine); conditions: for Percentage inhibition of ligand binding, Adrenergic α2B (0.03 μM): compound at 0.03 μM, repeat datapoints each shown
T4 construct: expressed in transfected cells; host or cells: CHO-K1
T4 sequence (P18089 1-450): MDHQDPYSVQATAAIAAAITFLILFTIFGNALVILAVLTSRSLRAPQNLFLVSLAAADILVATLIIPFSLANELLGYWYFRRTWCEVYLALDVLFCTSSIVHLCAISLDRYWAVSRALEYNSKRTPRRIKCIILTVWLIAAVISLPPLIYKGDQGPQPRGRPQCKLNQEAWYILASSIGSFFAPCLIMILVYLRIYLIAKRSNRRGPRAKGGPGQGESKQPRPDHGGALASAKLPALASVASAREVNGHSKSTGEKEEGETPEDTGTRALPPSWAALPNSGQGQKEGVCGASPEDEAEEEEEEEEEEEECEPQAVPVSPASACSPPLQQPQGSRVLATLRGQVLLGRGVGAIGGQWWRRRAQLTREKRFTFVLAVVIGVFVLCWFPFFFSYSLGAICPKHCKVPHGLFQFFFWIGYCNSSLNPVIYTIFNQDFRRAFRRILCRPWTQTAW
In short: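 Values are percent inhibition of specific radioligand binding. The receptor, expressed in CHO-K1 cells, was exposed to 2.5 nM [3H]Rauwolscine at 25° C for 60 min, with 10 μM Prazosin marking non-specific binding.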

Compound	Percentage inhibition of ligand binding, Adrenergic α1D [2]	Percentage inhibition of ligand binding, Adrenergic α2B (0.03 μM) ([4]; 0.03 µM)	Percentage inhibition of ligand binding, Adrenergic α2A (0.1 μM) ([1]; compound at 0.1 μM, 0.1 µM)	Percentage inhibition of ligand binding, Adrenergic α1B (0.1 μM) ([3]; compound at 0.1 μM, 0.1 µM)	other results
Cc1ccc2c(c1)c1c(n2CC(C)c2ccc(C)nc2)CCN(C)C1 (single isomer, unassigned) [289a]	57%	–	–	–	Percentage inhibition of ligand binding, Adrenergic α2A ([1]; compound at 0.1 μM, 0.1 µM): 60%; Percentage inhibition of ligand binding, Adrenergic α1B ([3]; compound at 0.1 μM, 0.1 µM): 51%
CC(Cn1c2c(c3ccccc31)CN(C)CC2)c1ccc(F)cc1 (single isomer, unassigned) [272b]	36%	–	–	–	Percentage inhibition of ligand binding, Adrenergic α2A ([1]; compound at 0.1 μM, 0.1 µM): 68%; Percentage inhibition of ligand binding, Adrenergic α1B ([3]; compound at 0.1 μM, 0.1 µM): 30%
Cc1ccc2c(c1)c1c(n2CC(C)c2ccc(F)cc2)CCN(C)C1 (single isomer, unassigned) [288b]	17%	–	–	–	Percentage inhibition of ligand binding, Adrenergic α2A ([1]; compound at 0.1 μM): 67%; Percentage inhibition of ligand binding, Adrenergic α1B ([3]; compound at 0.1 μM): 39%
Cc1ccc2c(c1)c1c(n2CC(C)c2ccc(F)cc2)CCN(C)C1 (single isomer, unassigned) [288a]	88%	–	–	–	Percentage inhibition of ligand binding, Adrenergic α2B ([4]; compound at 0.1 μM): 104%
CN1CCc2c(c3cc(Cl)ccc3n2CC(O)c2cccnc2)C1 (single isomer, unassigned) [7b]	–	74%	25%	37%	–
OC(Cn1c2c(c3cccnc31)CN1CCCC1C2)c1ccncc1 (single isomer, unassigned) [37d]	–	−3%	8%	2%	–
Cc1ccc2c(c1)c1c(n2CC(O)c2ccncc2)CCN2CCCCC12 (single isomer, unassigned) [47a]	–	40%	10%	58%	–
Cc1ccc2c(c1)c1c(n2CC(O)c2ccncc2C)CCN(C)C1 (centres unmarked) [133a]	–	–	–	–	Percentage inhibition of ligand binding, Adrenergic α2B ([4]; 0.03 μM compound, 0.03 µM): 52%; Percentage inhibition of ligand binding, Adrenergic α2A ([1]; 0.1 μM compound, 0.1 µM): 13%; Percentage inhibition of ligand binding, Adrenergic α1B ([3]; 0.1 μM compound, 0.1 µM): 57%
Cc1ccc2c(c1)c1c(n2CC(O)c2ccncc2Cl)CCN(C)C1 (single isomer, unassigned) [135a]	–	–	–	–	Percentage inhibition of ligand binding, Adrenergic α2B ([4]; 0.03 μM compound, 0.03 µM): 42%; Percentage inhibition of ligand binding, Adrenergic α2A ([1]; 0.1 μM compound, 0.1 µM): 4%; Percentage inhibition of ligand binding, Adrenergic α1B ([3]; 0.1 μM compound, 0.1 µM): 60%
Cc1ccc2c(c1)c1c(n2CC(C)(O)c2cccnc2)CN(C)CC1 (centres unmarked) [14b, 1-(2,6-dimethyl-1,2,3,4-tetrahydro-3-carbolin-9-yl)-2-pyridin-3-yl-propan-2-ol]	–	14%	−6%	25%	–
